Experimental data: US20110207807A1, “NEW USE FOR HOMOISOFLAVONE OR A SALT THEREOF” (Catholic University Industry Academy Cooperation Foundation, priority 2008, published 2011)

Key:
T cells = assay: Mixed lymphocyte reaction (MLR), T cell proliferation (3H-thymidine); type: cell-based, mouse; settings: one-way MLR, BALB/C and C57B/C splenocytes, concentration-dependent (FIG. 9)
Method: Mixed lymphocyte reaction (MLR) was carried out in order to investigate the inhibitory effect of homoisoflavanone against T cell proliferation. When mouse immune cells of different MHC classes are cultured as mixed with each other, the T cells recognize those of different MHC class as antigens and thus proliferate. One-way MLR was performed as follows. Following excision of spleens from BALB/C and C57B/C mice, the cells were individualized and red blood cells were lysed. After irradiation of 25 Gy γ-rays to BALB/C splenocytes to inactivate the BALB/C T cells, the BALB/C and C57B/C splenocytes (5×10^5 and 2×10^5 cells each) were mixed in a U-bottom 96-well plate. After treating with homoisoflavanone, the cells were incubated for 56 hours in an incubator of 5% CO2 and 37° C. Then, after further adding ^3[H]-thymidine (0.5) to each well, the cells were further incubated for 16 hours. Thereafter, the cells of each well were collected on filter paper and then put in a vial. After adding a scintillation solution (2 mL), counts per minute (CPM) was measured using a β-counter.

cPLA2 [1] = assay: cPLA2 phosphorylation induced by PMA and A23187 in HMC-1 (Western blot); type: cell-based, human; settings: HMC-1, 2 μg/mL, 50 nM PMA + 1 μM A23187, 4 hours (FIG. 7c)
Method: 1×10^6 HMC-1 cells were inoculated on a 100-mm culture dish and cultured in IMDM containing 10% FBS for 48 hours. […] Then, Western blotting was carried out in the same manner as in Example 2-1 except for using rabbit anti-p-cytosolic phospholipase A2 (cPLA2) antibody, rabbit anti-cPLA2 antibody, rabbit anti-ERK antibody and rabbit anti-p-ERK antibody (Cell Signaling) and using anti-rabbit IgG-HRP conjugation antibody (Zymed) as secondary antibody.

cPLA2 [2] = assay: UV-induced cPLA2 phosphorylation in HaCaT cells (Western blot); type: cell-based, human; settings: 1 μg/mL, UV (FIG. 2b)
Method: (§1) In order to identify the intracellular factors affecting COX-2 expression that are affected by homoisoflavanone, Western blotting was carried out in the same manner as in Example 2-1 except for treating with homoisoflavanone at 1 μg/mL, irradiating UV for 45 minutes and using rabbit anti-p-cytosolic phospholipase A2 (cPLA2) antibody, rabbit anti-cPLA2 antibody, rabbit anti-ERK antibody, rabbit anti-p-ERK antibody, rabbit anti-p38 antibody or rabbit anti-p-p38 antibody and using anti-rabbit IgG-HRP conjugation antibody (Zymed) as secondary antibody. Positive control groups were treated with 1 μM SB203580 (A.G. Scientific, Inc.) as p38 inhibitor or 10 μM PD98059 (A.G. Scientific, Inc.) as MEK 1 inhibitor instead of homoisoflavanone.

ERK = assay: UV-induced ERK phosphorylation in HaCaT cells (Western blot); type: cell-based, human; settings: 1 μg/mL, UV (FIG. 2d)
Method: as §1

[3] = tested on: intracellular reactive oxygen species (ROS); assay: Intracellular ROS induced by UV radiation (DCFH-DA fluorescence microscopy); type: cell-based, human; settings: HaCaT cells, 1 μg/mL, UV 100 J/m^2, compared to UV only (FIG. 1)
Method: Human keratinocyte cell line HaCaT cells (acquired from Professor N. Fusenig of the German Cancer Research Center) were inoculated on a 60-mm culture dish (5×10^5 cells; 1×10^6 cells for a 100-mm culture dish) and cultured for 24 hours in Dulbecco's modified Eagle's medium (DMEM) containing 10% fetal bovine serum (FBS).
Then, after treating with homoisoflavanone of Chemical Formula 1 (R=OCH3) at a concentration of 1 μg/mL for 1 hour, the cells were washed 3 times with phosphate buffered saline (PBS). In order to generate reactive oxygen species (ROS), the cells were irradiated with UV at 100 J/m^2 using a UV lamp (FSX 24 T12/UVB/HO, Pansol™, USA). Immediately after the UV radiation, the cells were washed again with PBS and further cultured for 4 hours in DMEM containing 1% FBS, while treating with homoisoflavanone at the same concentration. Then, after treating for 30 minutes in Hank's balanced salt solution (HBSS, BioWhittaker, Cambrex, USA) with 25 μM 2,7-dichlorofluorescein diacetate (DCFH-DA), the cells were washed 3 times with PBS.
Thereafter, the ROS induced by UV were measured using a fluorescence microscope (Carl Zeiss, USA). Test groups were subdivided as follows: non-treated group—treated with neither UV nor homoisoflavanone; test group A—treated with homoisoflavanone only; control group—treated with UV only; test group B—treated with UV and homoisoflavanone.

p38 = assay: UV-induced p38 phosphorylation in HaCaT cells (Western blot); type: cell-based, human; settings: 1 μg/mL, UV (FIG. 2c)
Method: as §1

COX-2 = COX-2 expression induced by UV in human keratinocytes (Western blot); type: cell-based; settings: HaCaT cells, 1 μg/mL, UV 100 J/m^2, 16 hours, vs UV only (FIG. 2a)
Method: In order to investigate the effect of homoisoflavanone on COX-2 expression induced by UV in human keratinocytes, HaCaT cells (5×10^5 cells) were inoculated on a 60-mm culture dish and cultured for 24 hours in DMEM containing 10% FBS.
Then, the cells were starved by culturing for 24 hours in DMEM containing 1% FBS. Then, after treating with homoisoflavanone at 1 μg/mL for 1 hour, the cells were washed 3 times with PBS and irradiated with UV at 100 J/m^2 to induce COX-2 expression. Immediately after the UV radiation, the cells were washed again with PBS and further cultured for 16 hours in DMEM containing 1% FBS, while treating with homoisoflavanone at the same concentration.
Thereafter, Western blotting was performed as follows in order to measure the degree of COX-2 expression in the cultured cells. The cells of each group were lysed using RIPA buffer containing 2 mM EDTA, 137 mM NaCl, 20 mM Tris-HCl (pH, 8.0), 1 mM sodium vanadate, 10 mM NaF, 1 mM phenylmethanesulfonyl fluoride (PMSF), 1% Triton X-100, 10% glycerol and a protease inhibitor cocktail, and subjected to SDS-PAGE electrophoresis on 10% acrylamide gel to separate proteins, which were then transferred to a nylon membrane and separated using goat anti-COX-2 antibody (SantaCruz, USA) and anti-goat IgG-horse radish peroxidase (HRP) conjugation antibody (1:10000, Zymed) as secondary antibody. […]

## COc1ccc(CC2COc3cc(O)cc(O)c3C2=O)cc1O (stereo not shown) [homoisoflavanone]
T cells
  concentrations at which proliferation of T cells was effectively inhibited: ≥ 0.25 µg/mL
cPLA2 [1]
  cPLA2 phosphorylation: inhibited
cPLA2 [2]
  phosphorylation of cPLA2: inhibited
ERK
  phosphorylation of ERK: inhibited
[3]
  generation of intracellular ROS induced by UV: decreased significantly
p38
  phosphorylation of p38: inhibited
COX-2
  COX-2 expression induced by UV: decreased
